Reference: PubChem BioAssay AID1963840 (Molecular Pharmacology Branch, DTP, NCI, 2024)

Tested on: 695427-040-R-J1-PDC complex spheroid viability
Assay: Anticancer human tumor 695427-040-R-J1-PDC patient-derived colon adenocarcinoma cell line growth inhibition [POLQ]
Details: for IC50: curve of first compound; for viability, T/C: stronger effect = lower value
Procedure, shortened: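 PDC + HUVEC + MSC complex spheroids; POLQ inhibitors ± partner drugs; top conc. at/near clinical Cmax, else 10 microM (SN-38 1 microM), half-log dilutions; 37 degrees C, 5% CO2.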

[1] = second compound 0.0316 µM, first compound 0.0316 µM
[2] = second compound 0.0316 µM, first compound 0.1 µM
[3] = second compound 0.0316 µM, first compound 0.316 µM
[4] = second compound 0.0316 µM, first compound 1 µM
[5] = second compound 0.0316 µM, first compound 3.16 µM
[6] = second compound 0.0316 µM, first compound 10 µM
[7] = second compound 0.1 µM, first compound 0.0316 µM
[8] = second compound 0.1 µM, first compound 0.1 µM
[9] = second compound 0.1 µM, first compound 0.316 µM
[10] = second compound 0.1 µM, first compound 1 µM
[11] = second compound 0.1 µM, first compound 3.16 µM
[12] = second compound 0.1 µM, first compound 10 µM
[13] = second compound 0.316 µM, first compound 0.0316 µM
[14] = second compound 0.316 µM, first compound 0.1 µM
[15] = second compound 0.316 µM, first compound 0.316 µM
[16] = second compound 0.316 µM, first compound 1 µM
[17] = second compound 0.316 µM, first compound 3.16 µM
[18] = second compound 0.316 µM, first compound 10 µM
[19] = second compound 1 µM, first compound 0.0316 µM
[20] = second compound 1 µM, first compound 0.1 µM
[21] = second compound 1 µM, first compound 0.316 µM
[22] = second compound 1 µM, first compound 1 µM
[23] = second compound 1 µM, first compound 3.16 µM
[24] = second compound 1 µM, first compound 10 µM
[25] = second compound 3.16 µM, first compound 0.0316 µM
[26] = second compound 3.16 µM, first compound 0.1 µM
[27] = second compound 3.16 µM, first compound 0.316 µM
[28] = second compound 3.16 µM, first compound 1 µM
[29] = second compound 3.16 µM, first compound 3.16 µM
[30] = second compound 3.16 µM, first compound 10 µM
[31] = second compound 10 µM, first compound 0.0316 µM
[32] = second compound 10 µM, first compound 0.1 µM
[33] = second compound 10 µM, first compound 0.316 µM
[34] = second compound 10 µM, first compound 1 µM
[35] = second compound 10 µM, first compound 3.16 µM
[36] = second compound 10 µM, first compound 10 µM
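Further: spheroids exposed to compounds for seven days.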
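Wherever viability, T/C is given: 100% = DMSO vehicle control viability.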

SMILES: O=C(c1cc(Cc2n[nH]c(=O)c3ccccc23)ccc1F)N1CCN(C(=O)C2CC2)CC1 + COC1C(OC(N)=O)C(O)C(Oc2ccc3c(O)c(NC(=O)c4ccc(O)c(CC=C(C)C)c4)c(=O)oc3c2C)OC1(C)C
- IC50 (second compound 0.0316 µM): > 10 µM
- IC50 (second compound 0.1 µM): > 10 µM
- IC50 (second compound 0.316 µM): > 10 µM
- IC50 (second compound 1 µM): > 10 µM
- IC50 (second compound 3.16 µM): > 10 µM
- IC50 (second compound 10 µM): > 10 µM
- viability, T/C [1]: 115%
- viability, T/C [2]: 106%
- viability, T/C [3]: 105%
- viability, T/C [4]: 105%
- viability, T/C [5]: 110%
- viability, T/C [6]: 97.9%
- viability, T/C [7]: 108%
- viability, T/C [8]: 108%
- viability, T/C [9]: 108%
- viability, T/C [10]: 105%
- viability, T/C [11]: 111%
- viability, T/C [12]: 96.3%
- viability, T/C [13]: 110%
- viability, T/C [14]: 96.9%
- viability, T/C [15]: 105%
- viability, T/C [16]: 104%
- viability, T/C [17]: 114%
- viability, T/C [18]: 108%
- viability, T/C [19]: 110%
- viability, T/C [20]: 105%
- viability, T/C [21]: 104%
- viability, T/C [22]: 106%
- viability, T/C [23]: 117%
- viability, T/C [24]: 101%
- viability, T/C [25]: 97.1%
- viability, T/C [26]: 96.7%
- viability, T/C [27]: 94.3%
- viability, T/C [28]: 108%
- viability, T/C [29]: 117%
- viability, T/C [30]: 112%
- viability, T/C [31]: 103%
- viability, T/C [32]: 103%
- viability, T/C [33]: 115%
- viability, T/C [34]: 107%
- viability, T/C [35]: 114%
- viability, T/C [36]: 97%

SMILES: C=CCn1c(=O)c2cnc(Nc3ccc(N4CCN(C)CC4)cc3)nc2n1-c1cccc(C(C)(C)O)n1 + COC1C(OC(N)=O)C(O)C(Oc2ccc3c(O)c(NC(=O)c4ccc(O)c(CC=C(C)C)c4)c(=O)oc3c2C)OC1(C)C
- IC50 (second compound 0.0316 µM): > 1 µM
- IC50 (second compound 0.1 µM): > 1 µM
- IC50 (second compound 0.316 µM): > 1 µM
- IC50 (second compound 1 µM): > 1 µM
- IC50 (second compound 3.16 µM): > 1 µM
- IC50 (second compound 10 µM): > 1 µM
- viability, T/C (second compound 0.0316 µM, first compound 0.00316 µM): 98.2%
- viability, T/C (second compound 0.0316 µM, first compound 0.01 µM): 91.8%
- viability, T/C [1]: 110%
- viability, T/C [2]: 95.3%
- viability, T/C [3]: 95.5%
- viability, T/C [4]: 82.2%
- viability, T/C (second compound 0.1 µM, first compound 0.00316 µM): 103%
- viability, T/C (second compound 0.1 µM, first compound 0.01 µM): 103%
- viability, T/C [7]: 96.3%
- viability, T/C [8]: 102%
- viability, T/C [9]: 98.4%
- viability, T/C [10]: 80.3%
- viability, T/C (second compound 0.316 µM, first compound 0.00316 µM): 105%
- viability, T/C (second compound 0.316 µM, first compound 0.01 µM): 114%
- viability, T/C [13]: 103%
- viability, T/C [14]: 105%
- viability, T/C [15]: 91.8%
- viability, T/C [16]: 70.9%
- viability, T/C (second compound 1 µM, first compound 0.00316 µM): 99.2%
- viability, T/C (second compound 1 µM, first compound 0.01 µM): 98.5%
- viability, T/C [19]: 101%
- viability, T/C [20]: 96.3%
- viability, T/C [21]: 97.3%
- viability, T/C [22]: 72.4%
- viability, T/C (second compound 3.16 µM, first compound 0.00316 µM): 92.3%
- viability, T/C (second compound 3.16 µM, first compound 0.01 µM): 102%
- viability, T/C [25]: 106%
- viability, T/C [26]: 97.4%
- viability, T/C [27]: 95.3%
- viability, T/C [28]: 79.1%
- viability, T/C (second compound 10 µM, first compound 0.00316 µM): 97.9%
- viability, T/C (second compound 10 µM, first compound 0.01 µM): 95%
- viability, T/C [31]: 106%
- viability, T/C [32]: 101%
- viability, T/C [33]: 103%
- viability, T/C [34]: 71.7%

SMILES: CC(C)n1c(=O)n(C)c2cnc3cc(F)c(-c4ccc(OCCCN5CCCCC5)nc4)cc3c21 + Cc1cccc(N(C)C(=O)C2C(O)CCN2c2nc(C)cc(C(F)(F)F)c2C#N)c1
- IC50 (second compound 0.0316 µM): > 10 µM
- IC50 (second compound 0.1 µM): > 10 µM
- IC50 (second compound 0.316 µM): > 10 µM
- IC50 (second compound 1 µM): > 10 µM
- IC50 (second compound 3.16 µM): > 10 µM
- IC50 (second compound 10 µM): > 10 µM
- viability, T/C [1]: 97.5%
- viability, T/C [2]: 98.8%
- viability, T/C [3]: 101%
- viability, T/C [4]: 111%
- viability, T/C [5]: 98.3%
- viability, T/C [6]: 75.8%
- viability, T/C [7]: 99.3%
- viability, T/C [8]: 102%
- viability, T/C [9]: 110%
- viability, T/C [10]: 108%
- viability, T/C [11]: 96.8%
- viability, T/C [12]: 70.3%
- viability, T/C [13]: 104%
- viability, T/C [14]: 101%
- viability, T/C [15]: 106%
- viability, T/C [16]: 113%
- viability, T/C [17]: 92.7%
- viability, T/C [18]: 68.7%
- viability, T/C [19]: 101%
- viability, T/C [20]: 102%
- viability, T/C [21]: 105%
- viability, T/C [22]: 103%
- viability, T/C [23]: 102%
- viability, T/C [24]: 67.2%
- viability, T/C [25]: 98.5%
- viability, T/C [26]: 100%
- viability, T/C [27]: 102%
- viability, T/C [28]: 98.5%
- viability, T/C [29]: 98.2%
- viability, T/C [30]: 67%
- viability, T/C [31]: 93.5%
- viability, T/C [32]: 99.9%
- viability, T/C [33]: 99.6%
- viability, T/C [34]: 101%
- viability, T/C [35]: 100%
- viability, T/C [36]: 55.7%
